The record followed here is patent US20190010461A1, “HUMAN PLURIPOTENT STEM CELL-BASED SCREENING FOR SMOOTH MUSCLE CELL DIFFERENTIATION AND DISEASE” (Wisconsin Alumni Research Foundation, priority 2017, published 2019).

Test [1] has as its system MYH11 promoter-driven luciferase activity. Description: High-throughput screening, MYH11-Nluc-2A-Tom reporter human ES cell line, luciferase assay. It is filed as cell-based. The procedure: FIGS. 1A-1C depict a schematic of high-throughput screening. […] The cells were passaged at day 4 and seeded on the 96-well plate for screening (2×10^6 cells/plate). After the reporter cell line was differentiated into mesoderm, small molecules were added to the cells from day 4 to day 14. FIG. 1B depicts the results of the screening in two batches. The luciferase assay results of individual small molecules were normalized to the average reads of all samples for each batch. The small molecules were selected for further analysis when the normalized reads were greater than “average+3×STDEV”. FIG. 1C depicts optimizing the concentration of the selected small molecules.
The cells were treated with 50 ng/ml FGF2 and 20 ng/ml BMP4 for another two days. The cells were passaged at day 4 and seeded on the 96-well plate for screening (2×10^6 cells/plate). The compounds were added from day 4-14. The Luciferase substrate (1000× dilution) (Nano-Glo Luciferase Assay system, Promega) was added to the medium for 15 min and luminescence was measured. An increase in luminescence indicates increased MYH11 expression, which is an indicator of the contractile smooth muscle cell phenotype. The Thomson custom stem cell Modulator 1, GSK-kinase inhibitor library, SellekChem Kinase inhibitor library, Analyticon NATx library, Prestwick Chemical Library, GlaxoSmithKline Protein Kinase Inhibitors, and part of Enamine Representative Diversity library were used for screening.
High-throughput screening directs contractile smooth muscle cell differentiation—The construction of the MYH11-NLuc-tdTomato human ES cell reporter line generated by CRISPR/Cas9 technology is described in FIGS. 6A-6H. The reporter cell line was differentiated into mesoderm in E8BAC medium (Zhang et al., 2017) for two days and treated with FGF2 and BMP4 to further mature mesoderm for another two days. The cells were then passaged into a 96-well plate and exposed to small molecules for 10 days using a customized robotic workstation (FIG. 1A). The workstation was designed through collaboration with TECAN, which enables us to perform the automatic high-throughput screening at specific time point and in long-term. The medium were changed every other day and the small molecules were added during the feeding. […] We then validated these hits and optimized their concentration.

For test [2], the system named is contractile and ECM genes (MYH11, SMTN, CNN1, ELN, ACTA2, TAGLN, COL1A1). The test can be described thus: RT-qPCR of pluripotent stem cell-derived SMCs. It is filed as cell-based, human. Particulars: versus previous protocol (Cheung's LM-SMCs). The source says:
Data are represented as mean±standard deviation (SD). […] Scale bar=1 mm. […] Scale bar=50 μm. […] Data are represented as mean±SD. Student's t-test, *: P<0.05, n=3.
FIGS. 9A-9B show a comparison of MYH11 expression in RepSox-SMCs and Cheung's LM-SMCs. […] Data are normalized to Cheung's LM-SMCs and represented as mean±SD, n=3 for all the samples except fresh human artery (n=2). *, p<0.05, student t-test.
Optimized smooth muscle cell differentiation—Human pluripotent stem cell cells (H1) were cultured in E8 medium on a […]™-coated plate. To achieve the best differentiation results, ES cells were split using EDTA at 1:4 ratios two days before the differentiation. The cells reached 80-90% confluency two days later. At the day of the differentiation, ES cells were dissociated by ACCUTASE™ (Invitrogen) for 3-5 min at 37 ° C. The cells were plated on a […]™-coated plate at 1:4 ratios (1×10^5 cells/cm2). […] An increased CHIR99021 concentration of 3 μM decreased cell proliferation at 36 hours but increased MYH11 expression. At 36 hours, the cells were passaged and seeded on a new […]™-coated plate (1.6×10^4 cells/cm2). The low cell density is critical for the differentiation. A cell density of 1.0-4.0×10^4 cells/cm2 for different cell lines can be tested, such that 100% cell confluence will be achieved at day 6, which gives rise to the best differentiation efficiency. […]
In general terms: Quantitative PCR measures a nucleic acid by following its amplification.

Test [3] relates to NOTCH1. The procedure:
Data are represented as mean±SD, n=3 biological replicates. *, p<0.05, student t-test. […] Cells were treated with RepSox (25 μM) or SiRNA. Comb3: Knockdown of TGFBR1, ACVR1B, and ACVR1C at the same time. Data are represented as mean±SD, n=2 biological replicates. *, p<0.05, student t-test. […] Cells were treated with RepSox (25 μM) or SiRNA. Data are represented as mean±SD, n=2 biological replicates. *, p<0.05, student t-test. […] During the smooth muscle cells differentiation, cells were treated with or without RepSox from day 10-11. […] During the smooth muscle cells differentiation, cells were treated with RepSox for 1 or 20 hours at day 12. […] Data are represented as mean±SD, n=3 biological replicates. *, p<0.05, student t-test. […] Cells were treated with RepSox and non-targeting control (NT)/SiRNA at day 10. The RNA was isolated at day 14.

Turning to `Cc1cccc(-c2n[nH]cc2-c2ccc3ncccc3n2)n1` [RepSox, RepSox (SJN 2511)], the “effectiveness at promoting MYH11 expression among validated hits” value in test [1] (hits validated, concentration optimized) was “most effective”. Further, in test [1] (small molecules added day 4-14, selected when normalized reads > average+3×STDEV), the “promotes MYH11+ SMC differentiation (increased MYH11 promoter-driven luciferase activity)” value was “promotes MYH11^+ SMC differentiation”. The “improvement of MYH11 expression (RT-qPCR)” value in test [2] stood at 23 fold. Moreover, the “RepSox treatment time after which increased NOTCH signaling could be detected” value in test [3] (RepSox for 1 or 20 hours at day 12) was determined as 1 h. The “full-length NOTCH1 and intracellular domain (NICD) expression” value in test [3] (treated with or without RepSox day 10-11) is “enhanced”.
